pEC50, pIC50: −log10 of the molar value.
Key:
[1] = biological target: PIM-1 (Homo sapiens (Human), UniProt P11309); test: PIM-1 biochemical assay (ADP Hunter); conditions: read-out: PIM1 IC50; semi-quantitative
[2] = test system: MiaPaca-2 cells (pancreas); test: MTT in vitro cell proliferation / combination assay, MiaPaca-2; type: cell-based
Description: (§1) Proliferation assays (MTT) were performed as described in: • “Chemical interrogation of FOXO3a nuclear translocation identifies potent and selective inhibitors of phosphoinositide 3-kinases”, W. Link, J. Oyarzabal, B. G. Serelde, M. I. Albarran, O. Rabal, A. Cebria, P. Alfonso, J. Fominaya, O. Renner, S. Peregrina, D. Soilan, P. A. Ceballos, A. I. Hernandez, M. Lorenzo, P. Pevarello, T. G. Granda, G. Kurz, A. Carnero, J. R. Bischoff, J. Biol. Chem. 284 (2009) 28392-28400. Combination Assay
(§2) A combination index score is calculated by the Chou and Talalay method (CalcuSyn software, Biosoft). The strength of synergy is scored using the ranking system Chou and Talalay: CI less than 0.8 indicates synergy, CI between 0.8 and 1.2 indicates additivity and CI greater than 1.2 indicates antagonism.
(§3) The EC50 values of representative combinations were also calculated. The individually measured EC50 values of the chemotherapeutic agent and the example compounds are compared to the EC50 value of the combination. The cell lines are characterised by tumor type.
(§4) Combination assays were performed as described in: • “Pim 1 kinase inhibitor ETP-45299 suppresses cellular proliferation and synergizes with PI3K inhibition”. Blanco-Aparicio, Carmen; Collazo, Ana Maria Garcia; Oyarzabal, Julen; Leal, Juan F.; Albaran, Maria Isabel; Lima, Francisco Ramos; Pequeno, Belen; Ajenjo, Nuria; Becerra, Mercedes; Alfonso, Patricia; Reymundo, Maria Isabel; Palacios, Irene; Mateos, Genoveva; Quinones, Helena; Corrionero, Ana; Carnero, Amancio; Pevarello, Paolo; Lopez, Ana Rodriguez; Fominaya, Jesus; Pastor, Joaquin; Bischoff, James R. Cancer Letters (Shannon, Ireland) 2011, 300(2), 145-153.

[3] = test system: Jeko-1 cells (Mantle cell lymphoma); test: MTT in vitro cell proliferation / combination assay, Jeko-1; type: cell-based
Description: as §2, §3
(§5) Blanco-Aparicio, Carmen; Collazo, Ana Maria Garcia; Oyarzabal, Julen; Leal, Juan F.; Albaran, Maria Isabel; Lima, Francisco Ramos; Pequeno, Belen; Ajenjo, Nuria; Becerra, Mercedes; Alfonso, Patricia; Reymundo, Maria Isabel; Palacios, Irene; Mateos, Genoveva; Quinones, Helena; Corrionero, Ana; Carnero, Amancio; Pevarello, Paolo; Lopez, Ana Rodriguez; Fominaya, Jesus; Pastor, Joaquin; Bischoff, James R. Cancer Letters (Shannon, Ireland) 2011, 300(2), 145-153.

[4] = test system: HTC116 cells (colon carcinoma); test: MTT in vitro cell proliferation / combination assay, HTC116; type: cell-based
Description: as §2, §3

[5] = test system: DU145 cells (prostate); test: MTT in vitro cell proliferation / combination assay, DU145; type: cell-based
Description: as §1, §2, §3, §4

[6] = test system: MV4:11 cells (leukemia, AML); test: MTT in vitro cell proliferation / combination assay, MV4:11; type: cell-based
Description: as §2
(§6) The EC50 values of representative combinations were also calculated. The individually measured EC50 values of the chemotherapeutic agent and the example compounds are compared to the EC50 value of the combination. The cell lines are characterised by tumor type. […]

[7] = test system: NCI H1975 cells (non small cell lung carcinoma); test: MTT in vitro cell proliferation / combination assay, NCI H1975; type: cell-based
Description: as §2, §3, §5

[8] = test system: SKMel19 cells (melanoma); test: MTT in vitro cell proliferation / combination assay, SKMel19; type: cell-based
Description: as §2, §6

[9] = test system: A549 cells (lung adenocarcinoma); test: MTT in vitro cell proliferation / combination assay, A549; type: cell-based
Description: as §2, §3, §5

[10] = MiaPaca-2, combination with lapatinib
[11] = Jeko-1, combination with GDC-0941
[12] = Jeko-1, combination with lapatinib
[13] = HTC116, combination with PD-0325901
[14] = HTC116, combination with lapatinib
[15] = DU145, combination with Taxotere
[16] = MV4:11, combination with GDC-0941
[17] = MV4:11, combination with lapatinib
[18] = NCI H1975, combination with GDC-0941
[19] = SKMel19, combination with GDC-0879
[20] = SKMel19, combination with GDC-0941
[21] = A549, combination with GDC-0941

PIM-1, sequence (P11309 whole entry): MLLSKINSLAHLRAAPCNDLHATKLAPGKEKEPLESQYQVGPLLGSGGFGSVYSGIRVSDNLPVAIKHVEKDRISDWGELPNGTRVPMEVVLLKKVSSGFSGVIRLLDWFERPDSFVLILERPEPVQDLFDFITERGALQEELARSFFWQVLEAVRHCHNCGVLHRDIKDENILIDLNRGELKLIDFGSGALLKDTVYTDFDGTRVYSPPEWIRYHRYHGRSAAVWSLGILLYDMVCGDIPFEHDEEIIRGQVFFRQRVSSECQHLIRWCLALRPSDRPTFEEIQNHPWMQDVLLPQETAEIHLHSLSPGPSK

pIC50 [1]: > 7.00
pEC50 ([2]; Homo sapiens, MIA PaCa-2, MiaPaca-2, example compound alone, read-out: Example EC50): 5.30
pEC50 ([3]; Homo sapiens, Jeko-1, example compound alone, read-out: Example EC50): 5.60
pEC50 ([4]; HTC116, example compound alone, read-out: Example EC50): 5.00
pEC50 ([5]; Homo sapiens, DU-145, DU145, example compound alone, read-out: Example EC50): 4.82
pEC50 ([6]; Homo sapiens, MV4:11, example compound alone): 6.00
pEC50 ([8]; Homo sapiens, SK-MEL19, SKMel19, example compound alone): 5.52
pEC50 ([8]; SKMel19, example compound alone): 5.40
pEC50 ([9]; Homo sapiens, A549, example compound alone): 5.22
SMILES: CN1CCOc2c1c(N1CCC3(CC1)CC(N)C3)nn1c(-c3cccc(OC(F)(F)F)c3)nnc21 [Example 48, 7-[6-Methyl-3-(3-trifluoromethoxy-phenyl)-7,8-dihydro-6H-9-oxa-1,2,3a,4,6-pentaaza-cyclopenta[a]naphthalen-5-yl]-7-aza-spiro[3.5]non-2-ylamine]
Combination Index (CI) [2, 10]: 0.57
Synergy [2, 10]: ++ (0.3<C1<0.7)
Combination Index (CI) [3, 11]: 0.718
Synergy [3, 11]: + (0.7<C1<1.2)
Combination Index (CI) [3, 12]: 0.244
Synergy [3, 12]: +++ (0.1<CI<0.3)
Combination Index (CI) [4, 13]: 0.759
Synergy [4, 13]: + (0.7<C1<1.2)
Combination Index (CI) [4, 14]: 0.608
Synergy [4, 14]: ++ (0.3<C1<0.7)
Combination Index (CI) [5, 15]: 0.704
Synergy [5, 15]: + (0.7<C1<1.2)
Combination Index (CI) [6, 16]: 0.3
Synergy [6, 16]: +++ (0.1<CI<0.3)
Combination Index (CI) [6, 17]: 0.548
Synergy [6, 17]: ++ (0.3<C1<0.7)
pEC50 ([7]; Homo sapiens, NCI H1975, example compound alone): 5.30
Combination Index (CI) [7, 18]: 0.038
Synergy [7, 18]: ++++ (CI<0.1)
Combination Index (CI) [8, 19]: 0.319
Synergy [8, 19]: ++ (0.3<C1<0.7)
Combination Index (CI) [8, 20]: 0.571
Synergy [8, 20]: ++ (0.3<C1<0.7)
Combination Index (CI) [9, 21]: 0.12
Synergy [9, 21]: +++ (0.1<CI<0.3)
